Reference: patent publication US7235536B2, “Cellulose sulfate and other sulfated polysaccharides to prevent and treat papilloma virus infection and other infections” (Rush Presbyterian-St. Luke's Medical Center, priority 2000, dated 2007)
Where “and” joins values, the source holds several entries; their conditions need not be identical. Equal values may be shown once. Marks after values point to notes of the source that are not given here.

Tests used:
[1] = system: Porphyromonas levii; assay: Broth method MIC; type: cell-based
[2] = system: HPV-40; assay: RT-PCR ELISA for transient infection of human A431 cells, HPV-40; type: cell-based, human papilloma virus; settings: with virus (HPV-40)
Protocol: Cellulose sulfate and dextran sulfate were each prepared as a 2 mg/ml solution in 0.9% NaCl and tested for microbicidal activity using the in vitro HPV transient infection assay originally described by Smith and colleagues (Smith, L. H., C. Foster, M. E. Hitchcock, and R. Isseroff. 1993. In vitro HPV-11 infection of human foreskin. J. Invest. Dermatol. 101:292-295) with some modifications (Ludmerer, S. W., W. L. McClements, X. M. Wang, J. C. Ling, K. U. Jansen, and N. D. Christensen. 2000. HPV11 mutant virus-like parties elicit immune responses that neutralize virus and delineate a novel neutralizing domain. Virology 266:237-245). An ELISA-based read-out of Optical Density (OD) values using alkaline phosphatase cleavage of the substrate p-nitrophenyl phosphate was also used to measure HPV infection as described below.
The RT-PCR assay to detect HPV-40 infection was designed similarly for the detection of HPV-11 infection as described above.
A modification of the RT-PCR assay that incorporates an ELISA-based read-out (Boehringer-Mannheim) was also included to assess microbicidal activity. Replicate cell cultures of A431 cells were infected with an aliquot of infectious HPV virions as described above. After 4 days of culture, cells were harvested and RNA extracted. RNA was subjected to RT using downstream anti-sense (reverse) primers for HPV-11 or HPV-40 and β-actin (as a control/housekeeping cellular transcript) to initiate cDNA synthesis. The cDNA was processed through 2 sets of 30 cycles of PCR amplification using nested primers: the second set of cycles used digoxygenin (DIG)-dUTP to label the PCR products with DIG. DIG-labeled PCR products were denatured then renatured together with a biotinylated oligonucleotide specific for the targeted PCR product. Biotinylated products were detected in ELISA with plates coated with streptavidin (to capture the biotinylated target PCR product) then anti-DIG antibody and substrate. Labeled PCR products were added directly to ELISA plates, or titrated at 10-fold dilutions in duplicate for each cell culture for each virus dilution.
The microbicidal activity was assessed either as the detection of ethidium stained PCR products or as an ELISA-based read-out as described above. […] An initial experiment was conducted to test the specificity of the ELISA-based RT-PCR assay using HPV-11 and HPV-40 infection of A431 cells (Table E).

[3] = system: Porphyromonas asaccharolytica; assay: Agar method MIC; type: cell-based; settings: for CS MIC: Agar
[4] = system: Gardnerella vaginalis; assay: Broth method MIC; type: cell-based; settings: for CS MIC: Broth (study 2)
[5] = system: Eubacterium lentum; assay: Broth method MIC; type: cell-based; settings: for CS MIC: Broth (study 2)
[6] = system: Fusobacterium gonidiaformans; assay: Agar method MIC; type: cell-based; settings: for CS MIC: Agar
[7] = system: Clostridium perfringes; assay: Broth method MIC; type: cell-based; settings: for CS MIC: Broth (study 2)
[8] = system: Peptostreptococcus magnus
[9] = system: Bovine Papillomavirus type I; assay: BPV cell focus formation assay (Tables A, B); type: cell-based, bovine papilloma virus
Protocol: Cellulose sulfate was tested for its ability to inhibit BPV infection by cell focus formation assay (see Hermonat et al. (1992) for a description of this assay). Cellulose sulfate from Dextran Products Limited (Lot 80971 in the form of sodium cellulose sulfate, known as Ushercell J.) was mixed with BPV type I (obtained from bovine fibropapillomas) prior to adding the virus to mouse fibroblast line […] cells or mixed with these host cells first prior to adding the virus. In one molecular weight study, the Mr range of cellulose sulfate was about 750 to 20.3 million, with an average Mr of about 1.01 million. […] In another study, the average molecular weight was determined to be about 1.9 million with a peak Mr of about 2.3 million. Unless otherwise specified, the Mr is in daltons. The assay was repeated using different concentrations of cellulose sulfate and the results are shown below.

[10] = system: Porphyromonas asaccharolytica; assay: Broth method MIC; type: cell-based; settings: for CS MIC: Broth (study 2)
[11] = in vivo
From the text: Cellulose sulfate offers a further advantage in that irritation by a cytotoxic agent can cause lesions which may facilitate infection and the use of cellulose sulfate is not associated with such risks of infection.

[12] = system: Bacteroides fragilis; assay: Broth method MIC; type: cell-based
[13] = system: Bacteroides thetaiotaomicron; assay: Broth method MIC; type: cell-based
[14] = system: Prevotella melaminogenica; assay: Broth method MIC; type: cell-based; settings: for CS MIC: Broth (study 2)
[15] = system: Fusobacterium gonidiaformans; assay: Broth method MIC; type: cell-based; settings: for CS MIC: Broth (study 2)
[16] = Example 8, agar, 48 hours anaerobic, highest tested 625 μg/ml
[17] = ATCC (first listed), Broth (study 1)
[18] = ATCC (first listed), Broth (study 2)
[19] = ATCC (second listed), Broth (study 2)

## sodium cellulose sulfate
[1]; both strains
  growth inhibition: inhibited
[1]; rma# 11425, Broth (study 1)
  CS MIC: 600 µg/mL
[1]; rma# 11425, Broth (study 2)
  CS MIC: 600 µg/mL
[1]; rma# 11601, Broth (study 1)
  CS MIC: 300 µg/mL
[1]; rma# 11601, Broth (study 2)
  CS MIC: 300 µg/mL
[2]; 10 μg/ml at viral pretreatment
  Mean (SD) of O.D. reading for RT-PCR ELISA, HPV-40 probe: 0.397 (0.050) O.D.
[2]; 100 μg/ml at viral pretreatment
  Mean (SD) of O.D. reading for RT-PCR ELISA, HPV-40 probe: 0.128 (0.008) O.D.
[2]; 1000 μg/ml at viral pretreatment
  Mean (SD) of O.D. reading for RT-PCR ELISA, HPV-40 probe: 0.037 (0.004) O.D.
[3]; [16]
  lowest concentration of compound that inhibited growth: 80 µg/mL
[3]; rma# 11612
  CS MIC: 80 µg/mL
[3]; rma# 11656
  CS MIC: >625 µg/mL
[4]; both strains
  growth inhibition: inhibited
[4]; rma# 12066
  CS MIC: 5000 µg/mL
[4]; rma# 12262
  CS MIC: 5000 µg/mL
[5]; both strains
  growth inhibition: inhibited
[5]; rma# 9420
  CS MIC: 5000 µg/mL
[5]; rma# 11700
  CS MIC: 10000 µg/mL
[6]; [16]
  lowest concentration of compound that inhibited growth: 156 µg/mL
[6]; rma# 11423
  CS MIC: >625 µg/mL
[6]; rma# 11653
  CS MIC: 156 µg/mL
[7]; at the concentrations tested
  growth inhibition: inhibited one strain of Clostridium perfringes but not another one
[7]; rma# 11608
  CS MIC: 10000 µg/mL
[7]; rma# 11655
  CS MIC: NI (not inhibited by 10 mg/ml (the highest concentration tested))
[8]
  CS MIC: >0.625** mg/ml
[9]; 40 μg/ml, mixed first with the virus
  inhibition of infection: partial inhibition
[9]; 40 μg/ml, pre-incubated with host cells
  inhibition of infection: Complete inhibition
[9]; 200 ug/ml, pre-incubated with the virus before addition to the host cells
  inhibition of infection: almost complete inhibition
[9]; 500 μg/ml, mixed with the virus or with the host cells
  formation of oncogenic foci by the virus: completely inhibited
[9]; Table A, 5.0 μg/ml, pre-incubated with host cells prior to addition to virus
  Viral-induced foci per culture: 72 foci per culture and 60 foci per culture
[9]; Table A, 5.0 μg/ml, pre-incubated with virus prior to addition to host cells
  Viral-induced foci per culture: 121 foci per culture and 97 foci per culture
[9]; Table A, 50 μg/ml, pre-incubated with host cells prior to addition to virus
  Viral-induced foci per culture: 10 foci per culture and 12 foci per culture
[9]; Table A, 50 μg/ml, pre-incubated with virus prior to addition to host cells
  Viral-induced foci per culture: 37 foci per culture and 32 foci per culture
[9]; Table A, 500 μg/ml, pre-incubated with host cells prior to addition to virus
  Viral-induced foci per culture: 0^A foci per culture and 0 foci per culture
[9]; Table A, 500 μg/ml, pre-incubated with virus prior to addition to host cells
  Viral-induced foci per culture: 0^A foci per culture and 0 foci per culture
[9]; Table A, 5000 μg/ml, pre-incubated with host cells prior to addition to virus
  Viral-induced foci per culture: 0^B foci per culture and 0 foci per culture
[9]; Table A, 5000 μg/ml, pre-incubated with virus prior to addition to host cells
  Viral-induced foci per culture: 0^B foci per culture and 0 foci per culture
[9]; Table B, 1.6 μg/ml, pre-incubated with virus prior to addition to host cells
  Viral-induced foci per culture: 196 foci per culture and 168 foci per culture
[9]; Table B, 8.0 μg/ml, pre-incubated with host cells prior to addition to virus
  Viral-induced foci per culture: 5 foci per culture and 3 foci per culture
[9]; Table B, 40 μg/ml, pre-incubated with host cells prior to addition to virus
  Viral-induced foci per culture: 0 foci per culture
[9]; Table B, 40 μg/ml, pre-incubated with virus prior to addition to host cells
  Viral-induced foci per culture: 116 foci per culture and 104 foci per culture
[9]; Table B, 200 μg/ml, pre-incubated with host cells prior to addition to virus
  Viral-induced foci per culture: 0 foci per culture
[9]; Table B, 200 μg/ml, pre-incubated with virus prior to addition to host cells
  Viral-induced foci per culture: 34 foci per culture and 42 foci per culture
[10]; at the concentrations tested
  growth inhibition: Two strains of Porphyromonas asaccharolytica were inhibited but a third one was not
[10]; rma# 11656
  CS MIC: 5000 µg/mL
[10]; rma# 11690
  CS MIC: NI (not inhibited by 10 mg/ml (the highest concentration tested))
[11]
  tolerability versus K-Y Jelly: as well as or even better than K-Y Jelly
  tolerability versus nonoxynol-9: better tolerated than nonoxynol-9
[12]; [17]
  CS MIC: NI (not inhibited by 10 mg/ml (the highest concentration tested))
[12]; [18]
  CS MIC: 10000 µg/mL
[12]; [19]
  CS MIC: NI (not inhibited by 10 mg/ml (the highest concentration tested))
[12]; at the concentrations tested
  growth inhibition: one strain of Bacteroides fragilis was inhibited but three others were not
[12]; rma# 11647, Broth (study 2)
  CS MIC: NI (not inhibited by 10 mg/ml (the highest concentration tested))
[12]; rma# 11652, Broth (study 2)
  CS MIC: NI (not inhibited by 10 mg/ml (the highest concentration tested))
[13]; [17]
  CS MIC: NI (not inhibited by 10 mg/ml (the highest concentration tested))
[13]; [18]
  CS MIC: NI (not inhibited by 10 mg/ml (the highest concentration tested))
[13]; [19]
  CS MIC: 10000 µg/mL
[13]; at the concentrations tested
  growth inhibition: One strain of Bacteroides thetaiotaomicron was inhibited but three others were not
[13]; rma# 11604, Broth (study 2)
  CS MIC: NI (not inhibited by 10 mg/ml (the highest concentration tested))
[13]; rma# 11651, Broth (study 2)
  CS MIC: NI (not inhibited by 10 mg/ml (the highest concentration tested))
[14]; at the concentrations tested
  growth inhibition: Neither one of the strains of Prevotella melaminogenica were inhibited
[14]; rma# 5657
  CS MIC: NI (not inhibited by 10 mg/ml (the highest concentration tested))
[14]; rma# 9052
  CS MIC: NI (not inhibited by 10 mg/ml (the highest concentration tested))
[15]; both strains, broth method
  growth inhibition: inhibited
[15]; rma# 11423
  CS MIC: 5000 µg/mL
[15]; rma# 11653
  CS MIC: 5000 µg/mL
